Test results reported in patent US20230295133A1, “PROCESS FOR PREPARING A COMPOUND USEFUL TO TREAT MYCOSES” (PULMOCIDE LIMITED, priority 2014, published 2023).
In brackets after ≈: the same amount, converted by molar mass.

Assays:
[1] = system: aspergillus fumigatus (ATCC 13073 [strain: NIH 5233]); test: In vivo anti-fungal activity, prophylactic and therapeutic treatment of infected immunocompromised neutropenic mice; set-up: species or system A/J mice; settings: prophylactic treatment (days 0, 1, 2 and 3); 0.4 mg/mL
[2] = system: Aspergillus fumigatus L98H (TR34/L98H); test: Broth microdilution assay (modified EUCAST); assay type: cell-based; settings: Aspergillus fumigatus, read-out: MIC75 against Aspergillus fumigatus isolate L98H
Experimental: (§1) This assay was conducted using a modified method published by EUCAST (Rodriguez-Tudela et al., 2008). Spores of aspergillus fumigatus (NCPF2010, NCPF7010 (Methionine 220 mutation), NCPF7099 (Glycine G54 mutation) from Public Health England, Wiltshire; TR34/L98H mutants from St Louis Hospital, Paris, France) were cultured in Sabouraud dextrose agar for 3 days. A stock spore suspension was prepared from a Sabouraud dextrose agar culture by washing with PBS-tween (10 mL; PBS containing 0.05% Tween-20, 100 U/mL Penicillin and 100 U/mL Streptomycin). The spore count was assessed using a Neubauer haemocytometer and then adjusted to 10^6 spores/mL with PBS. A working suspension of spores (2 × 10^5 spores/mL) was prepared in filter sterilised, BSA MOPS RPMI-1640 (50 mL; RPMI-1640 containing 2 mM L-glutamine, 0.5% BSA, 2% glucose, 0.165 M MOPS, buffered to pH 7 with NaOH). For the assay, BSA MOPS RPMI-1640 (50 µL/well) was added throughout the 384-well plate (Catalogue number 353962, BD Falcon, Oxford, UK) first. Test compounds (0.5 µL DMSO solution) were then added in quadruplicate using an Integra VIAFLO 96 (Integra, Zizers, Switzerland), and mixed well using a plate mixer. Subsequently 50 µL of the working spore suspension prepared above was added to all wells except non-spore control wells. For non-spore control wells, BSA MOPS-RPMI solution (50 µL/well) was added instead. The plate was covered with a plastic lid, and incubated (35° C. with ambient air) for 48 hr. The OD of each well at 530 nm was determined using a multi-scanner (Clariostar: BMG, Buckinghamshire, UK). The percentage inhibition for each well was calculated and the MIC50, MIC75 and MIC90 values were calculated from the concentration-response curve generated for each test compound.

[3] = system: Aspergillus fumigatus NCPF7099; test: Broth microdilution assay (modified EUCAST); assay type: cell-based; settings: Aspergillus fumigatus, NCPF7099, n = 3, read-out: MIC75 against Aspergillus fumigatus isolate NCPF7099
Experimental: as §1

[4] = system: Aspergillus fumigatus NCPF2010; test: Broth microdilution assay (modified EUCAST); assay type: cell-based; settings: Aspergillus fumigatus, NCPF2010, read-out: MIC75 against Aspergillus fumigatus isolate NCPF2010
Experimental: as §1

[5] = Cell viability: resazurin assay; assay type: cell-based, human; settings: human, BEAS2B cells; n = 3-5
Experimental: BEAS2B cells were seeded in 384-well plates (100 µL; 3000 / well /; BD Falcon, Catalogue No 353962) in RPMI-LHC8 (RPMI-1640 and LHC8 media combined in equal proportions) one day before experimentation. For cell-free control wells, RPMI-LHC8 (100 µL) was added. Test compounds (0.5 µL of a DMSO solution) were added to give a final DMSO concentration of 0.5% using an Integra VIAFLO 96 (Integra, Zizers, Switzerland). BEAS2B cells were incubated with each test compound for 1 day (37° C. / 5% CO2 in RPMI-LHC8). After addition of resazurin stock solution (5 µL, 0.04%) the plates were incubated for a further 4 hr (37° C. / 5% CO2). The fluorescence of each well at 545 nm (excitation) and 590 nm (emission) was determined using a multi-scanner (Clariostar: BMG Labtech). The percentage loss of cell viability was calculated for each well relative to vehicle (0.5% DMSO) treatment. Where appropriate, a CC50 value was calculated from the concentration-response curve generated from the concentration-response curve for each test compound.

[6] = system: Aspergillus fumigatus NCPF7100; test: Broth microdilution assay (modified EUCAST); assay type: cell-based; settings: Aspergillus fumigatus, NCPF7100, read-out: MIC75 against Aspergillus fumigatus isolate NCPF7100

SMILES	% Inhibition versus Infected Controls, GM in BALF [1] [%]	% Inhibition versus Infected Controls, GM in serum [1] [%]	% Inhibition versus Infected Controls, Lung Fungal Load [1] [%]	MIC [2] [µM]	MIC [3] [µM]	MIC [4] [µM]	CC50 at 1 day [5] [µM]	MIC [6] [µM]
O=C(Nc1ccc(F)cc1)c1ccc(N2CCN(c3ccc(OCC4CO[C@@](Cn5cncn5)(c5ccc(F)cc5F)C4)c(F)c3)CC2)cc1 (stereo in doubt) [Example 17, 4-(4-(4-(((3R, 5R)-5-((1H-1,2,4-triazol-1-yl)methyl)-5-(2,4-difluorophenyl)tetrahydrofuran-3-yl)methoxy)-3-fluorophenyl)piperazin-1-yl)-N-(4-fluorophenyl)benzamide]	45	72	83	0.409 (≈ 0.281 µg/mL)	0.0185 (≈ 0.0127 µg/mL)	0.00215 (≈ 0.00148 µg/mL)	> 14.6	0.0133 (≈ 0.00913 µg/mL)
N#Cc1ccc(NC(=O)c2ccc(N3CCN(c4ccc(OCC5CO[C@@](Cn6cncn6)(c6ccc(F)cc6F)C5)c(F)c4)CC3)cc2)c(F)c1 (stereo in doubt) [Example 24, 4-(4-(4-(((3R, 5R)-5-((1H-1,2,4-triazol-1-yl)methyl)-5-(2,4-difluorophenyl)tetrahydrofuran-3-yl)methoxy)3-fluorophenyl)piperazin-1-yl)-N-(4-cyano-2-fluorophenyl)benzamide]	–	–	–	0.191 (≈ 0.136 µg/mL)	0.0205 (≈ 0.0146 µg/mL)	0.0099 (≈ 0.00705 µg/mL)	> 14.1	0.014 (≈ 0.00996 µg/mL)
Cc1cc(N2CCN(c3ccc(C(=O)Nc4ccc(F)c(F)c4)cc3)CC2)ccc1OC[C@@H]1CO[C@@](Cn2cncn2)(c2ccc(F)cc2F)C1 [Example 27, 4-(4-(4-(((3R, 5R)-5-((1H-1,2,4-triazol-1-yl)methyl)-5-(2,4-difluorophenyl)tetrahydrofuran-3-yl)methoxy)-3-methylphenyl)piperazin-1-yl)-N-(3,4-difluorophenyl)benzamide]	–	–	–	0.136 (≈ 0.0953 µg/mL)	0.0127 (≈ 0.0089 µg/mL)	0.0193 (≈ 0.0135 µg/mL)	> 14.3	0.0223 (≈ 0.0156 µg/mL)
Cc1cc(N2CCN(c3ccc(C(=O)Nc4ccc(OC(F)(F)F)cn4)cc3)CC2)ccc1OC[C@@H]1CO[C@@](Cn2cncn2)(c2ccc(F)cc2F)C1 [Example 39, 4-(4-(4-(((3R,5R)-5-((1H-1,2,4-triazol-1-yl)methyl)-5-(2,4-difluorophenyl)tetrahydrofuran-3-yl)methoxy)-3-methylphenyl)piperazin-1-yl)-N-(5-(trifluoromethoxy)pyridin-2-yl)benzamide]	–	–	–	0.0659 (≈ 0.0494 µg/mL)	–	0.052 (≈ 0.039 µg/mL)	> 13.3	–
Cc1cc(N2CCN(c3ccc(C(=O)Nc4ccc(Cl)cn4)cc3)CC2)ccc1OC[C@@H]1CO[C@@](Cn2cncn2)(c2ccc(F)cc2F)C1 [Example 41, 4-(4-(4-(((3R, 5R)-5-((1H-1,2,4-triazol-1-yl)methyl)-5-(2,4-difluorophenyl)tetrahydrofuran-3-yl)methoxy)-3-methylphenyl)piperazin-1-yl)-N-(5-chloropyridin-2-yl)benzamide]	–	–	–	0.261 (≈ 0.183 µg/mL)	–	0.0576 (≈ 0.0403 µg/mL)	> 14.3	–
